Tests used:
mouse FLS [1] = assay: WST-1 assay on mouse FLS; assay type: cell-based
Procedure: (§1) Anti-chemokine and anti-inflammatory effects of 3′-sialyllactose were examined. First, purity of mouse FLS was examined by FACS analysis, and then no effects of 3′-sialyllactose on FLS proliferation and cytotoxicity were examined by WST-1 assay (see FIGS. 14A-A to 14A-C). […] Therefore, in a subsequent in vitro experiment, 3′-sialyllactose was used at a concentration of 0 μM to 250 μM. In order to examine effects of 3′-sialyllactose on IL-1β-, IL-6-, IL-17-, and TNF-α-induced chemokines (e.g., CCL2, CCL5, CCL7, CXCL1, CXCL2, and CXCL5), pro-inflammatory cytokines (IL-1, IL-6, and TNF-α), and COX2 expression, IL-1β-, IL-6-, IL-17-, and TNF-α-stimulated human RA-FLS and mouse FLS were treated with 3′-sialyllactose (100 μM or 250 μM) for 24 hrs.

Mmp3 = Mmp3 expression in IL-1β-treated chondrocytes (qRT-PCR, Western blotting); assay type: cell-based, mouse; conditions: 5 ng/ml of IL-1β, 0 to 250 μM, 24 hrs; concentration-dependent
Procedure: (§2) IL-1β is a representative inflammatory cytokine that decreases Col2a1 essential for cartilage formation in chondrocytes and also promotes articular inflammation and cartilage tissue destruction. Chondrocytes were treated with 5 ng/ml of IL-1β by time, and then qRT-PCR was performed using conditions and primers of the following Table 1 according to the method of Example 2-1 to examine inhibition of Mmp3 and Mmp13 expression.
(§3) Secretory proteins such as Mmp3 and Mmp13 were allowed to react at 0° C. for 20 min after reacting 900 μl of serum-free medium (conditioned medium) with 100 μl of trichloroacetic acid (TCA). Next, a supernatant was discarded by centrifugation at 12,000 rpm and 4° C. for 10 min, and then reacted with 500 μl of 100% cold acetone at […] for 1 hr. The sample reacting with 100% acetone was centrifuged to discard a supernatant, and proteins were finally precipitated and detected. Western blotting was performed using anti-Mmp3 antibody (Abcam) and anti-Mmp13 antibody (Abcam), and thickness and concentration of Western blot bands were measured by a computer program and relative values thereof were determined by densitometry.

Sox-9 = Sox-9 reporter gene luciferase activity in chondrocytes; assay type: cell-based, mouse; conditions: co-treated with 5 ng/ml IL-1β and 0 to 250 μM for 24 hrs
Procedure: A Sox-9 reporter gene was prepared by inserting 48-bp Sox9 binding site in the first intron of human Col2a1 gene into the upstream of SV40 promoter in pGL3 vector (Zhou G et al., J Biol Chem 1998, 12, 14989-97).
1 μg of the Sox-9 reporter gene was transfected into chondrocytes using lipofectamine 2000 (Invitrogen) for 3 hrs. The transfected cells were co-treated with 5 ng/ml interleukin 1 beta (IL-1β) and 0 μM, 10 μM, 50 μM, 100 μM, or 250 μM of 3′- or 6′-sialyllactose for 24 hrs, and then chondrocytes were recovered to examine Sox-9 activity by luciferase activity.

[2] = test system: DMM-induced osteoarthritis mouse model; assay: DMM-induced osteoarthritis mouse model, oral administration; assay type: in vivo
Procedure: All animal experiments were approved by the Animal Care and Use Committee of the University of Ajou. For osteoarthritis models, 8-week-old male C57BL/6 mice were subjected to destabilization of the medial meniscus (DMM) surgery. Mice knee joints were processed for histological analysis 10 weeks after surgery. In detail, the experimental mice also received gavage feeding of PBS containing 3′-sialyllactose (100 mg/Kg) starting at 2 weeks prior to DMM, and oral feeding on every other day during 4 weeks after surgery, and performed three times a week for total 6 weeks until the end of the experiment. Then, the mice were sacrificed. Control mice were administered with PBS in the same manner.
Knee joints of the mice sacrificed in Example 6-1 were fixed in 4% paraformaldehyde, treated with 0.5 M EDTA (pH 8.0) for 2 weeks, and embedded in paraffin. The paraffin blocks were sectioned at a thickness of 5 μm and serial-sectioned at 40-μm intervals. The paraffin sections were deparaffinized in xylene and hydrated with graded ethanol. Cartilage destruction was detected by Safranin-O staining and scored using the Osteoarthritis Research Society International (OARSI) grading system. Mmp3 (ab52915), Mmp13 (ab51072), Cox2 (SC-1745), pErk ((#9101), IjB (9242), Sox9 (NBP2-24659; Novus, Littleton, USA) and Col2a1 (MAB8887) were immunostained as previously described.

[3] = test system: extracellular-signal regulated kinase (Erk); assay: Erk phosphorylation in IL-1β-treated chondrocytes (Western blotting, densitometry); assay type: cell-based, mouse; conditions: 5 ng/ml of IL-1β, 0 μM, 50 μM, 100 μM, or 250 μM
Procedure: Chondrocytes of mouse knee joint were treated with 5 ng/ml of IL-1β for 10 min to examine activation of extracellular-signal regulated kinase (Erk) through Erk phosphorylation.
Chondrocytes were co-treated with 5 ng/ml of IL-1β and 0 μM, 50 μM, 100 μM, or 250 μM of 3′-sialyllactose, and Erk phosphorylation increased by IL-1β was confirmed to be decreased by 3′-sialyllactose (FIG. 8).

mouse FLS [4] = assay: Chemokine, pro-inflammatory cytokine and COX2 expression in stimulated mouse FLS; assay type: cell-based; conditions: IL-1β-, IL-6-, IL-17-, and TNF-α-stimulated mouse FLS; 100 μM or 250 μM, 24 hrs
Procedure: as §1

[5] = test system: atopic dermatitis mouse model; assay: Atopic dermatitis mouse model, oral administration; assay type: in vivo; conditions: 100 mg/kg or 500 mg/kg oral
Procedure: In order to examine inhibitory effect of 3′-sialyllactose on atopic dermatitis, ear thickness of atopic dermatitis mouse model was examined at 28 days after oral administration of 100 mg/kg or 500 mg/kg of 3′-sialyllactose. Further, the left ear skin of the mouse was cut into thin sections, stained with hematoxylin and eosin (H&E), and stained with toluidine blue.

[6] = test system: synovial tissues of ankle and knee joints; assay: Staining of ankle and knee joints in rheumatoid arthritis mice (FLS and immune cell proliferation); assay type: in vivo, mouse
Mmp13 = Mmp13 expression in IL-1β-treated chondrocytes (qRT-PCR, Western blotting); assay type: cell-based, mouse; conditions: 5 ng/ml of IL-1β, 0 to 250 μM, 24 hrs; concentration-dependent
Procedure: as §2, §3

[7] = test system: type II collagen (Col2a1); assay: Col2a1 expression in chondrocytes (qRT-PCR, Western blotting); assay type: cell-based, mouse; conditions: for Col2a1 expression in chondrocytes: 0 to 250 μM, 36 hrs; for Col2a1 expression suppressed by IL-1β in chondrocytes: 5 ng/ml of IL-1β
Procedure: In order to examine effects of 3′- or 6′-sialyllactose on cartilage formation and regeneration, the chondrocytes obtained in Example 1 were incubated for 36 hrs and then treated with 3′- or 6′-sialyllactose at a concentration of 0 μM, 10 μM, 50 μM, 100 μM, or 250 μM, followed by further incubation for 36 hrs.
Next, in order to perform qRT-PCR, RNA was extracted from the chondrocytes using a TRI reagent (Molecular Research Center Inc.), and cDNA obtained by reverse transcription of RNA was amplified by PCR using primers of SEQ ID NOS: 1 and 2 under condition of annealing temperature of 55° C. to examine expression of type II collagen (Col2a1, 173 bp) which is essential for cartilage formation. As a control group, Gapdh (450 bp, annealing temperature of 58° C.) was examined by using primers of SEQ ID NOS: 3 and 4.
Further, a whole cell lysate was extracted from the chondrocytes using a lysis buffer (150 mM NaCl, 1% NP-40, 50 mM Tris, 5 mM NaF) containing protease and phosphatase inhibitor cocktails (Roche), and Col2a1 expression in the cells was examined. Western blotting was performed using anti-Col2a1 antibody (Millipore) and anti-Erk antibody (Cell signaling), and thickness and concentration of Western blot bands were measured by a computer program and relative values thereof were determined by densitometry (FIGS. 4A and 4B).
IL-1β is a representative inflammatory cytokine inhibiting Col2a1 expression in chondrocytes. Chondrocytes were incubated for 36 hrs, and then treated with 5 ng/ml of IL-1β (GeneScript, USA) for 24 hrs to confirm that Col2a1 expression was decreased by IL-1β.
In order to examine whether the decreased Col2a1 expression is increased again in chondrocytes by 3′- or 6′-sialyllactose, qRT-PCR and Western blotting were performed in the same manner as in Example 2-1.

chondrocytes = assay: Cytotoxicity of sialyllactose on chondrocytes (EZ-Cytox cell viability assay); assay type: cell-based, mouse; conditions: 0 μM, 10 μM, 50 μM, 100 μM, or 250 μM, 24 hrs
Procedure: Chondrocytes were obtained from cartilage tissues derived from femoral heads, femoral condyles, and tibial plateaus of normal mouse at 5 days after birth. The obtained chondrocytes were cultured in DMEM medium (Gibco, USA) containing 10% (v/v) fetal bovine serum (Gibco, USA), 50 μg/ml of streptomycin (Sigma-Aldrich, USA) and 50 unit/ml of penicillin (Sigma-Aldrich, USA).
In order to confirm that 3′- or 6′-sialyllactose has no cytotoxicity on chondrocytes, chondrocytes were cultured in a 96-well culture plate at a density of 9×10^3 cells/well, and then treated with 3′- or 6′-sialyllactose (Genechem Inc., Daejeon, Korea) at a concentration of 0 μM, 10 μM, 50 μM, 100 μM, or 250 μM, followed by incubation in a 5% CO2 incubator at 37° C. for 24 hrs. Cytotoxicity of 3′- or 6′-sialyllactose on chondrocytes was confirmed by measuring absorbance at 450 nm using an EZ-Cytox Cell viability assay kit (DoGen, Korea).

[8] = test system: mouse models with rheumatoid arthritis; assay: Therapeutic effect in mice with arthritis; assay type: in vivo; conditions: 500 mg/kg oral every other day for 2 weeks
Procedure: Next, in order to examine therapeutic effects of 3′-sialyllactose, mice with arthritis were orally administered with 3′-sialyllactose. In detail, 8-week-old DBA mice were immunized day 0 and day 21, and then orally administered with 500 mg/kg of 3′-sialyllactose every other days for 2 weeks. Control groups were administered with lactose (250 mg/kg), sialic acid (250 mg/kg), or MTX (1 mg/kg).

[9] = test system: collagen-induced arthritis (CIA) mouse model; assay: Prophylactic effect in collagen-induced arthritis (CIA) mouse model; assay type: in vivo; conditions: 100 mg/kg and 500 mg/kg oral, 4 weeks
Procedure: In order to examine prophylactic effects of 3′-sialyllactose during development of arthritis, collagen-induced arthritis (CIA) mouse model was orally administered with 3′-sialyllactose three times a week for 4 weeks at various concentrations (100 mg/kg and 500 mg/kg). In detail, the mouse models immunized day 1 and day 21 were orally administered with 3′-sialyllactose every other days for 4 weeks after second immunization. Control groups were orally administered with PBS, lactose, or sialic acid.

human RA-FLS = assay: Chemokine, pro-inflammatory cytokine and COX2 expression in stimulated human RA-FLS; assay type: cell-based; conditions: IL-1β-, IL-6-, IL-17-, and TNF-α-stimulated human RA-FLS; 100 μM or 250 μM, 24 hrs
Procedure: as §1

Mmp3, Mmp13, and COX2 = assay: Mmp3, Mmp13 and COX2 expression in IL-1β-treated mouse FLS; assay type: cell-based
Procedure: as §1
FIGS. 14A-A and 14A-B show FACS results of analyzing marker expression on the FLS surfaces in a mouse according to passages (FIG. 14A-A: CD90.2; FIG. 14A-B: CD14), and a graph of cytotoxicity confirmed by WST-1 assay (FIG. 14A-C), and FIG. 14B is a graph showing Mmp3, Mmp13, and COX2 expression levels according to lactose, sialic acid, and 3′-sialyllactose in IL-1β-treated mouse FLS.

In the case of `CC(=O)N[C@H]1C([C@H](O)[C@H](O)CO)O[C@@](O[C@@H]2C(O)[C@H](O[C@@H]3C(CO)OC(O)C(O)[C@H]3O)OC(CO)[C@@H]2O)(C(=O)[O-])C[C@H]1O.[Na+]` (stereo partly drawn) [3′-sialyllactose], the “FLS proliferation and cytotoxicity” value (mouse FLS [1]) is reported as “no effects”, the “Mmp3 expression increased by IL-1β in chondrocytes” value (Mmp3) is reported as “decreased” and the “Sox-9 activity decreased by IL-1β” value (Sox-9) is reported as “restored”. For the same compound, the “OARSI scores (cartilage destruction) compared with control mouse” value ([2]; 100 mg/Kg gavage, 10 weeks after DMM surgery) was “remarkably low”, the “Cox2 expression (immunohistochemical staining)” value ([2]; 100 mg/Kg oral, DMM model) was “decreased” and the “Mmp3 expression (immunohistochemical staining)” value ([2]; 100 mg/Kg oral, DMM model) was “decreased”. The “Mmp13 expression (immunohistochemical staining)” value ([2]; 100 mg/Kg oral, DMM model) was “decreased”, the “Erk phosphorylation increased by IL-1β” value [3] was “decreased” and the “expression levels of chemokines, pro-inflammatory cytokines, and COX2” value (mouse FLS [4]) was “remarkably decreased”. For the same compound, the mouse ear thickness ([5]; 28 days) was “decreased”, the ear dermal thickness ([5]; concentration-dependent) was “decreased” and the ear epidermal thickness ([5]; concentration-dependent) was “decreased”. The “number of mast cells in the ear skin (toluidine blue staining)” value ([5]; concentration-dependent) was “decreased”, the “proliferation of macrophages by rheumatoid arthritis” value ([6]; ankle and knee synovial tissue, anti-CD68 staining) was “significantly decreased” and the “proliferation of FLS by rheumatoid arthritis” value ([6]; ankle and knee synovial tissue, anti-CD90.2 staining) was “significantly decreased”. The “proliferation of neutrophils by rheumatoid arthritis” value ([6]; ankle and knee synovial tissue, elastase staining) was “significantly decreased”, the “synovial hyperplasia and infiltration of mononuclear cells into the ankle and knee joints” value ([6]; hematoxylin and Safranin-O staining) was “inhibit” and the “Mmp13 expression increased by IL-1β in chondrocytes” value (Mmp13) was “decreased”. The “Col2a1 expression in chondrocytes” value [7] was “increased”, the “Col2a1 expression suppressed by IL-1β in chondrocytes” value [7] was “gradually increased” and the cytotoxicity on chondrocytes (chondrocytes) was “did not show cytotoxicity”. The “expression of pro-inflammatory cytokines (mouse sera)” value [8] was “decreased”, the swelling [8] was “alleviated” and the “expression of pro-inflammatory cytokines (mouse sera)” value [9] was “decreased”. For the same compound, the “swelling of CIA mouse model” value [9] was “alleviated” and the “expression levels of chemokines, pro-inflammatory cytokines, and COX2” value (human RA-FLS) was “remarkably decreased”.

In the case of `CC(=O)N[C@H]1C([C@H](O)[C@H](O)CO)O[C@@](OCC2O[C@@H](O[C@@H]3C(CO)OC(O)C(O)[C@H]3O)C(O)[C@@H](O)[C@H]2O)(C(=O)[O-])C[C@H]1O.[Na+]` (stereo partly drawn) [6′-sialyllactose], the “Mmp3 expression increased by IL-1β in chondrocytes” value (Mmp3) is reported as “decreased”, the “Sox-9 activity decreased by IL-1β” value (Sox-9) is reported as “restored” and the “Mmp13 expression increased by IL-1β in chondrocytes” value (Mmp13) is reported as “decreased”. For the same compound, the “Col2a1 expression in chondrocytes” value [7] was “increased”, the “Col2a1 expression suppressed by IL-1β in chondrocytes” value [7] was “gradually increased” and the cytotoxicity on chondrocytes (chondrocytes) was “did not show cytotoxicity”.

With `OC[C@H]1O[C@@H](O[C@H]2[C@H](O)[C@@H](O)C(O)O[C@@H]2CO)[C@H](O)[C@@H](O)[C@H]1O` (stereo partly drawn) [lactose] the “Mmp3, Mmp13, and COX2 expression levels, control groups for 3′-sialyllactose” value (Mmp3, Mmp13, and COX2) was “no significant difference”.
